The values below are quoted from earlier work in patent US8846088B2, “Melt granulation of a composition containing a calcium-containing compound” (Takeda Nycomed AS, priority 2005, dated 2014).

For this series, the system named is elderly patients. The following applies: annual injections of 150.000-300.000 IU.

Turning to vitamin D, the overall fracture rate entry was “significant reduction in overall fracture rate” and the “rate of hip fracture” value is reported as “not in the rate of hip fracture”.
